Test results published in patent publication US20230081426A1, “COMPOUNDS AND METHODS FOR KRAS MODULATION AND INDICATIONS THEREFOR” (Plexxikon Inc., priority 2020, published 2023).

Experiments:
[1] = target: T1, G12D-mutant human KRAS (amino acid residues 1-188) (Homo sapiens, UniProt P01116, G12D); assay: KRAS Binding Disruption Assay (AlphaScreen; biotinylated KRpep-2d analogue or RAF1-RBD), G12D; settings: KRAS G12D; geometric mean; read-out: KRAS GMean IC50 (uM) MUTATION: G12D
T1 construct: G12D or G12C-mutant human KRAS (amino acid residues 1-188) with FLAG tag; made in house; host or cells: E. coli
T1 sequence (P01116 1-188 isoform P01116-2 G12D): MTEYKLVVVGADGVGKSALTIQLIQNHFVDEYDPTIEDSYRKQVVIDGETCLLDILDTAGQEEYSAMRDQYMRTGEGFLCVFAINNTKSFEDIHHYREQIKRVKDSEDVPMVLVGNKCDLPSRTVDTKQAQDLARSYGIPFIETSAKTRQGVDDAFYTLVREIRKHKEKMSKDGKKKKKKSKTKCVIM
Outline: (§1)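 AlphaScreen readout: signal falls as compound displaces biotinylated KRpep-2d analogue or RAF1-RBD from mutant KRAS. Both partners at 5-20 nM, 1 h binding at 25° C, then 10 μg/mL Anti-Flag acceptor and streptavidin donor beads for 1 h. IC50 by nonlinear regression of % inhibition.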

[2] = target: T2, G12C-mutant human KRAS (amino acid residues 1-188) (Homo sapiens, UniProt P01116, G12C); assay: KRAS Binding Disruption Assay (AlphaScreen; biotinylated KRpep-2d analogue or RAF1-RBD), G12C; settings: geometric mean, read-out: KRAS GMean IC50 (uM) MUTATION: G12C
T2 construct: G12D or G12C-mutant human KRAS (amino acid residues 1-188) with FLAG tag; made in house; host or cells: E. coli
T2 sequence (P01116 1-188 isoform P01116-2 G12C): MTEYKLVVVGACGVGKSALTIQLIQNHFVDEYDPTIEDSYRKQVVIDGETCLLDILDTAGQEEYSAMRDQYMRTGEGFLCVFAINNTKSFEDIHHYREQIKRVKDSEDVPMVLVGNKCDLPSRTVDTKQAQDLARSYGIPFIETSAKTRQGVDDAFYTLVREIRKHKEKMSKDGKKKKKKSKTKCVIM
Outline: as §1

Fc1cc2c(N3C[C@H]4CC[C@@H](C3)N4)nc(OCC34CCCN3CCC4)nc2c(F)c1-c1c[nH]c2ccc(F)c(F)c12 [P-0788, 4-((1R,5S)-3,8-diazabicyclo[3.2.1]octan-3-yl)-7-(4,5-difluoro-1H-indol-3-yl)-6,8-difluoro-2-((tetrahydro-1H-pyrrolizin-7a(5H)-yl)methoxy)quinazoline]
IC50 [1]: 0.0001 to 10 µM
IC50 [2]: 0.0001 to 10 µM

Fc1cc2[nH]cc(-c3c(F)cc4c(N5C[C@H]6CC[C@@H](C5)N6)nc(OCC56CCCN5CCC6)nc4c3F)c2cc1F [P-0789, 4-((1R,5S)-3,8-diazabicyclo[3.2.1]octan-3-yl)-7-(5,6-difluoro-1H-indol-3-yl)-6,8-difluoro-2-((tetrahydro-1H-pyrrolizin-7a(5H)-yl)methoxy)quinazoline]
IC50 [1]: 0.0001 to 10 µM
IC50 [2]: 10 to 100 µM

Cc1cccc2[nH]cc(-c3c(F)cc4c(N5C[C@H]6CC[C@@H](C5)N6)nc(OCC56CCCN5CCC6)nc4c3F)c12 [P-0790, 4-((1R,5S)-3,8-diazabicyclo[3.2.1]octan-3-yl)-6,8-difluoro-7-(4-methyl-1H-indol-3-yl)-2-((tetrahydro-1H-pyrrolizin-7a(5H)-yl)methoxy)quinazoline]
IC50 [1]: 0.0001 to 10 µM
IC50 [2]: 0.0001 to 10 µM

Oc1cc(-c2ccc3c(N4C[C@H]5CC[C@@H](C4)N5)nc(N4CCC(O)C4)nc3c2F)c2ccccc2c1 (stereo partly drawn) [P-0791, 1-(4-((1R,5S)-3,8-diazabicyclo[3.2.1]octan-3-yl)-8-fluoro-7-(3-hydroxynaphthalen-1-yl)quinazolin-2-yl)pyrrolidin-3-ol]
IC50 [1]: 0.0001 to 10 µM
IC50 [2]: 100 to 1000 µM

CC1(O)CN(c2nc(N3C[C@H]4CC[C@@H](C3)N4)c3ccc(-c4cc(O)cc5ccccc45)c(F)c3n2)C1 [P-0792, 1-(4-((1R,5S)-3,8-diazabicyclo[3.2.1]octan-3-yl)-8-fluoro-7-(3-hydroxynaphthalen-1-yl)quinazolin-2-yl)-3-methylazetidin-3-ol]
IC50 [1]: 0.0001 to 10 µM
IC50 [2]: 10 to 100 µM

NC1CN(c2nc(N3C[C@H]4CC[C@@H](C3)N4)c3ccc(-c4cc(O)cc5ccccc45)c(F)c3n2)C1 [P-0793, 4-(2-(3-aminoazetidin-1-yl)-4-((1R,5S)-3,8-diazabicyclo[3.2.1]octan-3-yl)-8-fluoroquinazolin-7-yl)naphthalen-2-ol]
IC50 [1]: 0.0001 to 10 µM
IC50 [2]: 10 to 100 µM

CN(C)C1CN(c2nc(N3C[C@H]4CC[C@@H](C3)N4)c3ccc(-c4cc(O)cc5ccccc45)c(F)c3n2)C1 [P-0794, 4-(4-((1R,5S)-3,8-diazabicyclo[3.2.1]octan-3-yl)-2-(3-(dimethylamino)azetidin-1-yl)-8-fluoroquinazolin-7-yl)naphthalen-2-ol]
IC50 [1]: 0.0001 to 10 µM
IC50 [2]: 10 to 100 µM

Cc1cccc2c(-c3c(F)cc4c(N5C[C@H]6CC[C@@H](C5)N6)nc(OC[C@@H]5CCCN5C)nc4c3F)c[nH]c12 [P-0795, 4-((1R,5S)-3,8-diazabicyclo[3.2.1]octan-3-yl)-6,8-difluoro-7-(7-methyl-1H-indol-3-yl)-2-(((S)-1-methylpyrrolidin-2-yl)methoxy)quinazoline]
IC50 [1]: 10 to 100 µM
IC50 [2]: 10 to 100 µM

CN1CCC[C@H]1COc1nc(N2C[C@H]3CC[C@@H](C2)N3)c2cc(F)c(-c3c[nH]c4cc(Cl)ccc34)c(F)c2n1 [P-0796, 4-((1R,5S)-3,8-diazabicyclo[3.2.1]octan-3-yl)-7-(6-chloro-1H-indol-3-yl)-6,8-difluoro-2-(((S)-1-methylpyrrolidin-2-yl)methoxy)quinazoline]
IC50 [1]: 0.0001 to 10 µM
IC50 [2]: 100 to 1000 µM

COc1cccc2[nH]cc(-c3c(F)cc4c(N5C[C@H]6CC[C@@H](C5)N6)nc(OC[C@@H]5CCCN5C)nc4c3F)c12 [P-0797, 4-((1R,5S)-3,8-diazabicyclo[3.2.1]octan-3-yl)-6,8-difluoro-7-(4-methoxy-1H-indol-3-yl)-2-(((S)-1-methylpyrrolidin-2-yl)methoxy)quinazoline]
IC50 [1]: 0.0001 to 10 µM
IC50 [2]: 10 to 100 µM

CN1CCC[C@H]1COc1nc(N2C[C@H]3CC[C@@H](C2)N3)c2cc(F)c(-c3c[nH]c4cc(C#N)ccc34)c(F)c2n1 [P-0798, 3-(4-((1R,5S)-3,8-diazabicyclo[3.2.1]octan-3-yl)-6,8-difluoro-2-(((S)-1-methylpyrrolidin-2-yl)methoxy)quinazolin-7-yl)-1H-indole-6-carbonitrile]
IC50 [1]: 10 to 100 µM
IC50 [2]: 100 to 1000 µM

COc1cccc2c(-c3c(F)cc4c(N5C[C@H]6CC[C@@H](C5)N6)nc(OC[C@@H]5CCCN5C)nc4c3F)c[nH]c12 [P-0799, 4-((1R,5S)-3,8-diazabicyclo[3.2.1]octan-3-yl)-6,8-difluoro-7-(7-methoxy-1H-indol-3-yl)-2-(((S)-1-methylpyrrolidin-2-yl)methoxy)quinazoline]
IC50 [1]: 10 to 100 µM
IC50 [2]: 100 to 1000 µM

CN1CCC[C@H]1COc1nc(N2C[C@H]3CC[C@@H](C2)N3)c2cc(F)c(-c3c[nH]c4c(Cl)cccc34)c(F)c2n1 [P-0800, 4-((1R,5S)-3,8-diazabicyclo[3.2.1]octan-3-yl)-7-(7-chloro-1H-indol-3-yl)-6,8-difluoro-2-(((S)-1-methylpyrrolidin-2-yl)methoxy)quinazoline]
IC50 [1]: 10 to 100 µM
IC50 [2]: 100 to 1000 µM

CN1CCC[C@H]1COc1nc(N2C[C@H]3CC[C@@H](C2)N3)c2cc(F)c(-c3cn(C)c4ccccc34)c(F)c2n1 [P-0801, 4-((1R,5S)-3,8-diazabicyclo[3.2.1]octan-3-yl)-6,8-difluoro-7-(1-methyl-1H-indol-3-yl)-2-(((S)-1-methylpyrrolidin-2-yl)methoxy)quinazoline]
IC50 [1]: 10 to 100 µM
IC50 [2]: 100 to 1000 µM

O=C1CCC(COc2nc(N3C[C@H]4CC[C@@H](C3)N4)c3ccc(-c4cc(O)cc5ccccc45)c(F)c3n2)N1 (stereo partly drawn) [P-0802, 5-(((4-((1R,5S)-3,8-diazabicyclo[3.2.1]octan-3-yl)-8-fluoro-7-(3-hydroxynaphthalen-1-yl)quinazolin-2-yl)oxy)methyl)pyrrolidin-2-one]
IC50 [1]: 0.0001 to 10 µM
IC50 [2]: 10 to 100 µM

Oc1cc(-c2ccc3c(N4C[C@H]5CC[C@@H](C4)N5)nc(OCCn4ccnc4)nc3c2F)c2ccccc2c1 [P-0803, 4-(2-(2-(1H-imidazol-1-yl)ethoxy)-4-((1R,5S)-3,8-diazabicyclo[3.2.1]octan-3-yl)-8-fluoroquinazolin-7-yl)naphthalen-2-ol]
IC50 [1]: 0.0001 to 10 µM
IC50 [2]: 0.0001 to 10 µM

Oc1cc(-c2ccc3c(N4C[C@H]5CC[C@@H](C4)N5)nc(OCc4ncco4)nc3c2F)c2ccccc2c1 [P-0804, 4-(4-((1R,5S)-3,8-diazabicyclo[3.2.1]octan-3-yl)-8-fluoro-2-(oxazol-2-ylmethoxy)quinazolin-7-yl)naphthalen-2-ol]
IC50 [1]: 0.0001 to 10 µM
IC50 [2]: 10 to 100 µM

Oc1cc(-c2ccc3c(N4C[C@H]5CC[C@@H](C4)N5)nc(OCC4CCOCC4)nc3c2F)c2ccccc2c1 [P-0805, 4-(4-((1R,5S)-3,8-diazabicyclo[3.2.1]octan-3-yl)-8-fluoro-2-((tetrahydro-2H-pyran-4-yl)methoxy)quinazolin-7-yl)naphthalen-2-ol]
IC50 [1]: 0.0001 to 10 µM
IC50 [2]: 10 to 100 µM

Fc1cc(F)c2c(-c3c(F)cc4c(N5C[C@H]6CC[C@@H](C5)N6)nc(OCC56CCCN5CCC6)nc4c3F)c[nH]c2c1 [P-0806, 4-((1R,5S)-3,8-diazabicyclo[3.2.1]octan-3-yl)-7-(4,6-difluoro-1H-indol-3-yl)-6,8-difluoro-2-((tetrahydro-1H-pyrrolizin-7a(5H)-yl)methoxy)quinazoline]
IC50 [1]: 0.0001 to 10 µM
IC50 [2]: 0.0001 to 10 µM
